From patent US12441703B2, “Carboxamides as modulators of sodium channels” (VERTEX PHARMACEUTICALS INCORPORATED, priority 2019, dated 2025)

Each molecule was assayed against human NaV 1.8 (Homo sapiens, UniProt Q9Y5Y9) (assay: E-VIPR assay for detecting and measuring NaV inhibition properties). Details: E-VIPR assay conducted in the presence of human serum; HEK cells expressing truncated human NaV 1.8; read-out: IC50.
Type: cell-based
In short: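 Membrane-potential (coumarin/oxonol) readout after 10 s of 10 Hz biphasic electrical stimulation on E-VIPR. Compounds: 11-point 3-fold dilutions, […], 0.625% DMSO, 30 min at room temperature, human serum optional. Cells: HEK expressing truncated human NaV1.8 co-transduced with KIR2.1.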

Chain of human NaV 1.8 (Q9Y5Y9 whole entry, looked up, the tested form may be a part): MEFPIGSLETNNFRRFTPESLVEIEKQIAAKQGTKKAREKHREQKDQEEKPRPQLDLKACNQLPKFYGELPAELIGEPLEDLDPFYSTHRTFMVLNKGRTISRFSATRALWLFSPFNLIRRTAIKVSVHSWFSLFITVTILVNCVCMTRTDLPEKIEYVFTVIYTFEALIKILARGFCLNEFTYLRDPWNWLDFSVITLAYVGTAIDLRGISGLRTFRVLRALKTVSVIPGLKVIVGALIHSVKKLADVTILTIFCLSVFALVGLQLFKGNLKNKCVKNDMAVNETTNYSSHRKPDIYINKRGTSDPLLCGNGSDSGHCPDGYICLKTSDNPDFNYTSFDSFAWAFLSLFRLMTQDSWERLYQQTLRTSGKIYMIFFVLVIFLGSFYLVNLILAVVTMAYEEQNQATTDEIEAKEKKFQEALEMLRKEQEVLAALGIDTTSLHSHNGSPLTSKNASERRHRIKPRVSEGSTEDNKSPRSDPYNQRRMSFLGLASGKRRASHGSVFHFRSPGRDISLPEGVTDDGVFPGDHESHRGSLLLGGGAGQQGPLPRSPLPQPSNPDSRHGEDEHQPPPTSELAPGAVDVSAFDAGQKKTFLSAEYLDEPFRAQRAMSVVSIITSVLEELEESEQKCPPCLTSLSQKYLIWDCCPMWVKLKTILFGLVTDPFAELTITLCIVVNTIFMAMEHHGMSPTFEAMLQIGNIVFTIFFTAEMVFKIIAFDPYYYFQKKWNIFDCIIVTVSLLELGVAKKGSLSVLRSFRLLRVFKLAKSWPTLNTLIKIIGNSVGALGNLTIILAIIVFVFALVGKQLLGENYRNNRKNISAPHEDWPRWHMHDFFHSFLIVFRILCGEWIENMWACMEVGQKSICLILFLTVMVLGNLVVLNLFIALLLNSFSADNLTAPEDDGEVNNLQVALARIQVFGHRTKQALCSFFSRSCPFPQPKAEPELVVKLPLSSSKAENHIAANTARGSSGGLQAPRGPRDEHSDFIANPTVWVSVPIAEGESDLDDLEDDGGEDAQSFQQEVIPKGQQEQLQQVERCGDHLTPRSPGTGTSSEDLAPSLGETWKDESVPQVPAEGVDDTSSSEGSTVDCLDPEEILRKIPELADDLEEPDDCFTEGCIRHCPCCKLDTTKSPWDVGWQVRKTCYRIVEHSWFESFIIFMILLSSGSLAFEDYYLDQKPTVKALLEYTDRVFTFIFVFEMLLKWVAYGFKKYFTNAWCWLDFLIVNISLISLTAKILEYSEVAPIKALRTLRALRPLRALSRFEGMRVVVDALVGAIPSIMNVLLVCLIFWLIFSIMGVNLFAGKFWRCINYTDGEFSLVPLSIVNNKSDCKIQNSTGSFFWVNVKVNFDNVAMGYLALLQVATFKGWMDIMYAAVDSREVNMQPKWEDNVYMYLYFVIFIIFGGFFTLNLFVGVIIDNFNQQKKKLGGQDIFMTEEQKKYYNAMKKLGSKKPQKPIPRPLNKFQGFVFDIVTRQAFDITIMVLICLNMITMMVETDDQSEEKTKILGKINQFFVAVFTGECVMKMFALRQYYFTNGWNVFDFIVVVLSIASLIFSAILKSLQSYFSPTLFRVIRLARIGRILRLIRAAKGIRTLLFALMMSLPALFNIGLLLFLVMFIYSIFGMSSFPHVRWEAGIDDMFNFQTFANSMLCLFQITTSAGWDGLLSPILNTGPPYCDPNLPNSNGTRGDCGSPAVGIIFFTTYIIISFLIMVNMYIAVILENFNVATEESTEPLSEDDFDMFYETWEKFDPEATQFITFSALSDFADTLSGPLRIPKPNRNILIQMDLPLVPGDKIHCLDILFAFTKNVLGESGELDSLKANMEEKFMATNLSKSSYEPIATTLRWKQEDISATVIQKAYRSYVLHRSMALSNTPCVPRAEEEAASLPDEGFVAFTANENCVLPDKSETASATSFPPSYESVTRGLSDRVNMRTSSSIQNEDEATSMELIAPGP

Row | IC50 [nM] | Compound
1 | > 3000 | [2H]C([2H])([2H])Oc1cc(OC(F)(F)F)ccc1Oc1c(C)cc(C(F)(F)F)cc1C(=O)Nc1ccnc(C(N)=O)c1 [Compound 1039, 4-[[3-methyl-2-[2-(trideuteriomethoxy)-4-(trifluoromethoxy)phenoxy]-5-(trifluoromethyl)benzoyl]amino]pyridine-2-carboxamide]
2 | 6 | COc1c(Oc2cc3c(c(F)c2C(=O)Nc2ccnc(C(N)=O)c2)OCC(C)(C)O3)ccc(OC(F)(F)F)c1F [Compound 1040, 4-(5-fluoro-7-(3-fluoro-2-methoxy-4-(trifluoromethoxy)phenoxy)-2,2-dimethyl-2,3-dihydrobenzo[b][1,4]dioxine-6-carboxamido)picolinamide]
3 | 38 | COc1c(Oc2cc3c(c(F)c2C(=O)Nc2ccnc(C(N)=O)c2)OC(C)(C)CO3)ccc(OC(F)(F)F)c1F [Compound 1041, 4-(5-fluoro-7-(3-fluoro-2-methoxy-4-(trifluoromethoxy)phenoxy)-3,3-dimethyl-2,3-dihydrobenzo[b][1,4]dioxine-6-carboxamido)picolinamide]
